Data as given in PubChem BioAssay (NCI).
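Results reflect a 48-hour exposure of cells in 96-well plates to compound at five concentrations. TGI denotes the concentration required for complete inhibition of growth.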

Legend:
Experiment in all cases: DTP human tumour cell line panel, 48 h
NCI-H522 lung = test system: NCI-H522 lung
OVCAR-3 ovarian = test system: OVCAR-3 ovarian
MDA-MB-435 = test system: MDA-MB-435
NCI-H460 lung = test system: NCI-H460 lung
CAKI-1 renal = test system: CAKI-1 renal
M14 melanoma = test system: M14 melanoma
LOX IMVI melanoma = test system: LOX IMVI melanoma
T-47D breast = test system: T-47D breast
UACC-62 melanoma = test system: UACC-62 melanoma
DU-145 prostate = test system: DU-145 prostate
HOP-62 NSCLC = test system: HOP-62 NSCLC
MOLT-4 leukemia = test system: MOLT-4 leukemia
SK-OV-3 ovarian = test system: SK-OV-3 ovarian
SF-268 CNS = test system: SF-268 CNS
HCT-15 colon = test system: HCT-15 colon
HCT-116 colon = test system: HCT-116 colon
MDA-N = test system: MDA-N
UO-31 renal = test system: UO-31 renal
SW-620 colon = test system: SW-620 colon
ACHN renal = test system: ACHN renal
RXF 393 renal = test system: RXF 393 renal
MALME-3M melanoma = test system: MALME-3M melanoma
K-562 leukemia = test system: K-562 leukemia
NCI/ADR-RES ovarian = test system: NCI/ADR-RES ovarian
EKVX NSCLC = test system: EKVX NSCLC
TK-10 renal = test system: TK-10 renal
OVCAR-8 ovarian = test system: OVCAR-8 ovarian
OVCAR-4 ovarian = test system: OVCAR-4 ovarian
A498 renal = test system: A498 renal
SN12C renal = test system: SN12C renal
BT-549 breast = test system: BT-549 breast
COLO 205 colon = test system: COLO 205 colon
HS 578T breast = test system: HS 578T breast
OVCAR-5 ovarian = test system: OVCAR-5 ovarian
U251 CNS = test system: U251 CNS
MDA-MB-231 breast = test system: MDA-MB-231 breast
NCI-H23 lung = test system: NCI-H23 lung
SK-MEL-2 melanoma = test system: SK-MEL-2 melanoma
IGROV1 ovarian = test system: IGROV1 ovarian
SK-MEL-5 melanoma = test system: SK-MEL-5 melanoma
786-0 renal = test system: 786-0 renal
KM12 colon = test system: KM12 colon
SNB-19 CNS = test system: SNB-19 CNS
PC-3 prostate = test system: PC-3 prostate
NCI-H226 lung = test system: NCI-H226 lung
SNB-75 CNS = test system: SNB-75 CNS
RPMI-8226 leukemia = test system: RPMI-8226 leukemia
CCRF-CEM leukemia = test system: CCRF-CEM leukemia
MCF7 breast = test system: MCF7 breast
SK-MEL-28 melanoma = test system: SK-MEL-28 melanoma
SF-539 CNS = test system: SF-539 CNS
A549 NSCLC = test system: A549 NSCLC
HT29 colon = test system: HT29 colon
UACC-257 melanoma = test system: UACC-257 melanoma
HCC-2998 colon = test system: HCC-2998 colon
HL-60(TB) leukemia = test system: HL-60(TB) leukemia
HOP-92 NSCLC = test system: HOP-92 NSCLC
SF-295 CNS = test system: SF-295 CNS
SR leukemia = test system: SR leukemia

COC(=O)C(NC(=O)C(CC(=O)OC(C)(C)C)NC(=O)OC(C)(C)C)C(O)c1ccccc1 (stereo unspecified)
TGI (NCI-H522 lung): > 100 µM
TGI (OVCAR-3 ovarian): > 100 µM
TGI (MDA-MB-435): > 100 µM
TGI (NCI-H460 lung): > 100 µM
TGI (CAKI-1 renal): > 100 µM
TGI (M14 melanoma): > 100 µM
TGI (LOX IMVI melanoma): > 100 µM
TGI (T-47D breast): > 100 µM
TGI (UACC-62 melanoma): 70.8 µM
TGI (DU-145 prostate): > 100 µM
TGI (HOP-62 NSCLC): > 100 µM
TGI (MOLT-4 leukemia): > 100 µM
TGI (SK-OV-3 ovarian): 61.9 µM
TGI (SF-268 CNS): > 100 µM
TGI (HCT-15 colon): > 100 µM
TGI (HCT-116 colon): > 100 µM
TGI (MDA-N): > 100 µM
TGI (UO-31 renal): > 100 µM
TGI (SW-620 colon): > 100 µM
TGI (ACHN renal): > 100 µM
TGI (RXF 393 renal): > 100 µM
TGI (MALME-3M melanoma): > 100 µM
TGI (K-562 leukemia): > 100 µM
TGI (NCI/ADR-RES ovarian): > 100 µM
TGI (EKVX NSCLC): > 100 µM
TGI (TK-10 renal): > 100 µM
TGI (OVCAR-8 ovarian): > 100 µM
TGI (OVCAR-4 ovarian): > 100 µM
TGI (A498 renal): > 100 µM
TGI (SN12C renal): > 100 µM
TGI (BT-549 breast): > 100 µM
TGI (COLO 205 colon): > 100 µM
TGI (HS 578T breast): > 100 µM
TGI (OVCAR-5 ovarian): > 100 µM
TGI (U251 CNS): > 100 µM
TGI (MDA-MB-231 breast): > 100 µM
TGI (NCI-H23 lung): > 100 µM
TGI (SK-MEL-2 melanoma): > 100 µM
TGI (IGROV1 ovarian): > 100 µM
TGI (SK-MEL-5 melanoma): > 100 µM
TGI (786-0 renal): > 100 µM
TGI (KM12 colon): > 100 µM
TGI (SNB-19 CNS): > 100 µM
TGI (PC-3 prostate): > 100 µM
TGI (NCI-H226 lung): > 100 µM
TGI (SNB-75 CNS): > 100 µM
TGI (RPMI-8226 leukemia): > 100 µM
TGI (CCRF-CEM leukemia): > 100 µM
TGI (MCF7 breast): > 100 µM
TGI (SK-MEL-28 melanoma): > 100 µM
TGI (SF-539 CNS): > 100 µM
TGI (A549 NSCLC): > 100 µM
TGI (HT29 colon): > 100 µM
TGI (UACC-257 melanoma): > 100 µM

CC(C)(Br)C(=O)N1CCN(C(c2ccccc2)c2ccccc2)CC1
TGI (NCI-H522 lung): > 100 µM
TGI (OVCAR-3 ovarian): 36.8 µM
TGI (MDA-MB-435): > 100 µM
TGI (NCI-H460 lung): > 100 µM
TGI (HCC-2998 colon): > 100 µM
TGI (CAKI-1 renal): > 100 µM
TGI (M14 melanoma): > 100 µM
TGI (HL-60(TB) leukemia): 41.9 µM
TGI (LOX IMVI melanoma): > 100 µM
TGI (UACC-62 melanoma): > 100 µM
TGI (DU-145 prostate): > 100 µM
TGI (HOP-62 NSCLC): > 100 µM
TGI (MOLT-4 leukemia): > 100 µM
TGI (SK-OV-3 ovarian): > 100 µM
TGI (SF-268 CNS): > 100 µM
TGI (HCT-15 colon): > 100 µM
TGI (HCT-116 colon): > 100 µM
TGI (MDA-N): > 100 µM
TGI (UO-31 renal): > 100 µM
TGI (SW-620 colon): > 100 µM
TGI (ACHN renal): > 100 µM
TGI (RXF 393 renal): 81.2 µM
TGI (MALME-3M melanoma): > 100 µM
TGI (K-562 leukemia): > 100 µM
TGI (NCI/ADR-RES ovarian): > 100 µM
TGI (EKVX NSCLC): > 100 µM
TGI (TK-10 renal): > 100 µM
TGI (OVCAR-8 ovarian): > 100 µM
TGI (OVCAR-4 ovarian): > 100 µM
TGI (A498 renal): > 100 µM
TGI (SN12C renal): > 100 µM
TGI (BT-549 breast): > 100 µM
TGI (COLO 205 colon): > 100 µM
TGI (HS 578T breast): 55.5 µM
TGI (OVCAR-5 ovarian): > 100 µM
TGI (U251 CNS): > 100 µM
TGI (MDA-MB-231 breast): > 100 µM
TGI (NCI-H23 lung): > 100 µM
TGI (SK-MEL-2 melanoma): > 100 µM
TGI (IGROV1 ovarian): > 100 µM
TGI (SK-MEL-5 melanoma): > 100 µM
TGI (786-0 renal): > 100 µM
TGI (KM12 colon): 31.8 µM
TGI (SNB-19 CNS): > 100 µM
TGI (HOP-92 NSCLC): > 100 µM
TGI (PC-3 prostate): > 100 µM
TGI (NCI-H226 lung): > 100 µM
TGI (SNB-75 CNS): > 100 µM
TGI (CCRF-CEM leukemia): > 100 µM
TGI (MCF7 breast): 81.8 µM
TGI (SK-MEL-28 melanoma): > 100 µM
TGI (SF-539 CNS): > 100 µM
TGI (A549 NSCLC): > 100 µM
TGI (HT29 colon): > 100 µM
TGI (SF-295 CNS): > 100 µM
TGI (UACC-257 melanoma): > 100 µM
TGI (SR leukemia): > 100 µM
